Source: patent US8071654B2, “Inhibitors of thromboxane formation and action” (priority 2000, dated 2011)

Assays:
TP receptor [1] = biological target: T1, TP receptor (Homo sapiens, UniProt P21731); assay: platelet aggregation evoked by I-BOP; type: cell-based; conditions: 2 ng/0.5 ml, data not shown
T1 construct: endogenous in cells; host or cells: washed human platelets
T1 sequence (P21731 1-343): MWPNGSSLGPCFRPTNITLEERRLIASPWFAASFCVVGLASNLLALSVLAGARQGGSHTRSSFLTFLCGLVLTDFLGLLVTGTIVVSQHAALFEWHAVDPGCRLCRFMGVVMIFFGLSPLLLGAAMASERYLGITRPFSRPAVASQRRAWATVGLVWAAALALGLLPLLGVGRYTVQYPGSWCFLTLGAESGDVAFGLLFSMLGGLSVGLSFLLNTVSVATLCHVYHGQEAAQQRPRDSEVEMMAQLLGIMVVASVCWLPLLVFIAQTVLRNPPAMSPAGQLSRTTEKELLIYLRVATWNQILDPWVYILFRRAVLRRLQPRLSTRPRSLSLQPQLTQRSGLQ
Protocol: Venous blood was obtained from healthy human subjects who had not taken NSAID's for at least two weeks. Blood was drawn into plastic syringes containing ACD. It was immediately centrifuged at 23° at 200×g for 15 min. The platelet rich plasma was transferred into fresh plastic tubes and centrifuged at 400×g for 5 min. The supernatant was discarded and the platelet sediment was resuspended in fresh medium containing NaCl (137 mM), KCl (1 mM), NaH2PO4, glucose (5.5 mM), HEPES (20 mM) and CaCl2 (1 mM) and allowed to stand at room temperature for 30 min. A platelet count was made, which determined the volume of platelet suspension needed to make up 350×10^6 cells for each measurement. The aliquot was diluted with medium to make 0.5 ml/assay/cuvette. […]
0.5 ml of platelet suspension was added to siliconized glass tubes (four at a time) and heated with magnetic stirring to 37° for 1 min in a platelet aggregometer (PAP-4C). […] The response was recorded for the next 5 min. […] In experiments where the conversion of tritiated PGH2 was to be monitored, the procedure described above was repeated with tritiated PGH2 instead of unlabeled PGH2. After extraction of the sample as described above, the radiolabeled compounds were analyzed by TLC. Dose response curves for varying amounts of test compounds were generated and the data expressed as % inhibition of collagen-induced platelet aggregation. […]

platelet TP receptor = biological target: T2, platelet TP receptor (Homo sapiens, UniProt P21731); assay: binding of 125I-BOP to platelets; conditions: 10×10^6 cells/0.5 ml; read-out: IC50 for competition with 125I-BOP binding to platelets
T2 construct: endogenous in cells; host or cells: washed human platelets
T2 sequence (P21731 1-343): T1 sequence (P21731 1-343)
Protocol: Washed platelets were prepared as described above, except that the platelet suspension was made up at a concentration of 10×10^6 cells/0.5 ml. The binding assay involved the addition of radioligand (30,000 cpm ^125I-BOP) to all tubes in triplicate, and either various doses of unlabeled I-BOP (10^−9-10^−7 M), PBT-3 (10^−9-10^−7 M) or U46619 (10^−9-10^−7 M) in 1 μl ethanol. Additional tubes containing excess unlabeled I-BOP were included to assess the extent of non-specific binding.

[2] = intra ocular pressure in rats, eye drops, TonoPen; type: in vivo, Brown Norway rats; conditions: one drop daily to left eye, after 10 days' treatment, vs untreated right eye
Protocol: Brown Norway rats (300 g) were purchased from Charles River (St. Constant, Que), and housed (two/cage) in an animal facility with free access to food and water. A light cycle of 12 h on and 12 h off was maintained. Animals were allowed to adjust for one week prior to treatment during which period they were handled daily to get them familiarized with the procedures.
Prior to treatment with test drugs, the rats' intra ocular pressures (IOP) were measured to establish baseline readings. One drop of Didocaine (0.5%, Dioptic Labs, Markham, Ont) was administered to each eye, and the pressure in each eye was measured with a TonoPen (Mentor XL, Innova Medical Ophthalmics, Toronto). The treatment protocol consisted of daily administration of one drop of one of the following substances to the left eye, the right eye being left untreated to act as a control. […] Following this, the animals were left without treatment for 2 weeks (wash-out), and then treatment was started again, the same animals receiving the same drugs. Results are calculated from at least 30 readings/test animal and presented as the mean±SEM (left eye vs right eye), with the exclusion of readings >50 and <10 which were considered spurious and artifactual readings.

human platelets = assay: collagen-evoked aggregation of washed human platelets; type: cell-based; conditions: single dose 1 μg added 2 min prior to collagen (2 μg); 350×10^6 washed human platelets in 0.5 ml
Protocol: Venous blood was obtained from healthy human subjects who had not taken NSAID's for at least two weeks. Blood was drawn into plastic syringes containing ACD. […] The platelet rich plasma was transferred into fresh plastic tubes and centrifuged at 400×g for 5 min. […] A platelet count was made, which determined the volume of platelet suspension needed to make up 350×10^6 cells for each measurement. The aliquot was diluted with medium to make 0.5 ml/assay/cuvette. Appropriate calibration of the aggregometer (PAP-4C) for 0% and 100% transmission was carried out through the use of a sample of platelet suspension and cell-free medium (37).
(§1) 0.5 ml of platelet suspension was added to siliconized glass tubes (four at a time) and heated with magnetic stirring to 37° for 1 min in a platelet aggregometer (PAP-4C). Either vehicle alone (ethanol, 1 μl) or hepoxilin analog was then added, followed two min later by agonist (collagen: 2 μg; PGH2: 100 ng/0.5 ml; U46619: 10 ng/0.5 ml or I-BOP: 2 ng/0.5 ml). The response was recorded for the next 5 min. In experiments where analysis of TxB2 and HHT were to be made by HPLC, the platelet suspension at the end of the experiment was diluted with ethyl acetate, 100 ng of prostaglandin B1 was added as internal standard, and the mixture was acidified to pH 3 with 0.1 N HCl. After centrifugation, the organic layer was separated, washed twice with water to neutrality, and evaporated to dryness. Half of the sample was taken and was resuspended in 1 ml ethyl acetate containing 20 μg ADAM reagent, and was left in the dark for 2 h (38). The solvent was then evaporated and the residue was acetylated with a solution of pyridine/acetic anhydride (3/1, v/v) during 16 h at 23°. The reagents were evaporated to dryness and the residue was resuspended in acetonitrile/water for HPLC analysis. In experiments where the conversion of tritiated PGH2 was to be monitored, the procedure described above was repeated with tritiated PGH2 instead of unlabeled PGH2. After extraction of the sample as described above, the radiolabeled compounds were analyzed by TLC. Dose response curves for varying amounts of test compounds were generated and the data expressed as % inhibition of collagen-induced platelet aggregation. Each point was investigated 5 times and statistical analysis of the data was carried out using Macintosh Statview statistical software.

TP receptor [3] = biological target: T1, TP receptor; assay: platelet aggregation evoked by the TxA2 mimic U46619; type: cell-based; conditions: aspirin 20 μg
Protocol: Venous blood was obtained from healthy human subjects who had not taken NSAID's for at least two weeks. Blood was drawn into plastic syringes containing ACD. It was immediately centrifuged at 23° at 200×g for 15 min. The platelet rich plasma was transferred into fresh plastic tubes and centrifuged at 400×g for 5 min. The supernatant was discarded and the platelet sediment was resuspended in fresh medium containing NaCl (137 mM), KCl (1 mM), NaH2PO4, glucose (5.5 mM), HEPES (20 mM) and CaCl2 (1 mM) and allowed to stand at room temperature for 30 min. A platelet count was made, which determined the volume of platelet suspension needed to make up 350×10^6 cells for each measurement. The aliquot was diluted with medium to make 0.5 ml/assay/cuvette. Appropriate calibration of the aggregometer (PAP-4C) for 0% and 100% transmission was carried out through the use of a sample of platelet suspension and cell-free medium (37).
as §1

[4] = cited from earlier work

O=C(O)CCC/C=C\C[C@@H]1[C@@H](/C=C/[C@H](O)COc2ccc(I)cc2)[C@H]2CC[C@@H]1O2 (relative stereo) [I-BOP, 5-heptenoic acid, 7-[3-[3-hydroxy-4-(4-iodophenoxy)-1-butenyl]-7-oxabicyclo [2.2.1]hept-2-yl]-,[15-[1α, 2α(Z), 3β(1E,3S*), 4α]], reference compound]
aggregation caused by the agonist (TP receptor [1]): 70%
IC50 (platelet TP receptor): 0.5 nM

CC(C)(C)NC[C@H](O)COc1cccc2c1CCCC2=O [O-bunolol, reference compound]
effect on intra ocular pressure (IOP) ([2]; 0.5%): non-significant rise

CCCCC/C=C\CC1CC1/C=C/[C@@H](O)C/C=C\CCCC(=O)OC (stereo partly drawn) [PBT-1, 8(S)-hydroxy-11,12-cyclopropyl-eicosa-5Z,9E,14Z-trienoic acid methyl ester]
inhibition of collagen-evoked aggregation (human platelets): inhibited the collagen effect

CCCCC/C=C\CC1CC1/C=C/C(O)C/C=C\CCCC(=O)OC [PBT-2, 8(R)-hydroxy-11,12-cyclopropyl-eicosa-5Z,9E,14Z-trienoic acid methyl ester]
inhibition of collagen-evoked aggregation (human platelets): inhibited the collagen effect

CCCCC/C=C\CC1CC1[C@H](O)/C=C\C/C=C\CCCC(=O)OC (stereo partly drawn) [PBT-4, 10(R)-hydroxy-11,12-cyclopropyl-eicosa-5Z,8Z,14Z-trienoic acid methyl ester]
inhibition of collagen-evoked aggregation (human platelets): inhibited the collagen effect

CCCCC/C=C\CC1CC1[C@@H](O)/C=C\C/C=C\CCCC(=O)N[C@H]1C(O)O[C@H](CO)[C@H](O)[C@@H]1O (stereo partly drawn) [PBT-30, 10(S)-hydroxy-11,12-cyclopropyl-eicosa-5Z, 8Z, 14Z-trienoic acid galactosamide]
effect on intra ocular pressure (IOP) ([2]; 0.005%): tended to reduce IOP but the effect did not reach statistical significance

CCCCCC(O)C=CC1C2CC(CO2)C1CC=CCCCC(=O)O (stereo not drawn) [U46619, 5-heptenoic acid, 7-[6-(3-hydroxy-1-octenyl)-2-oxabicyclo-[2,2,1]-hept-5yl]-[1R-[1α,4α,5β(z), 6α(1E,3S*)]-9,11-dideoxy-9α,11α-methanoepoxyprostaglandin F2α, reference compound]
IC50 (platelet TP receptor): 4.1 nM

CC(=O)Oc1ccccc1C(=O)O [aspirin, reference compound]
effect on U46619-evoked aggregation (TP receptor [3]): did not block

CC(C)OC(=O)CCC/C=C\C[C@@H]1[C@@H](CC[C@@H](O)CCc2ccccc2)[C@H](O)C[C@@H]1O [latanoprost, reference compound]
effect on intra ocular pressure (IOP) ([2]; 0.005%): significant reduction in IOP

CCCCC[C@H](O)/C=C/[C@H]1O[C@H]2C[C@H](O2)[C@@H]1C/C=C\CCCC(=O)O [thromboxane A2 (TxA2), thromboxane A2]
half life in the body [4]: 30 s
